Results: article PMC11678221, “Design, Synthesis and Molecular Modeling of Pyrazolo[1,5-a]pyrimidine Derivatives as Dual Inhibitors of CDK2 and TRKA Kinases with Antiproliferative Activity” (Pharmaceuticals, 2024)
Blank lines part the entries; values can stand above or below the compound they belong to.

Key:
RFX 393 cells [1] = assay: Cell cycle investigation (PI flow cytometry); format: cell-based; conditions: GI50 concentration, 48 h; for %S: control 29.33; for %G0–G1: control 57.08
Method: RFX 393 cells underwent treatment with pyrazolopyrimidine derivatives 6s and 6t at their GI50 concentrations for 48 h.
RFX 393 cells underwent treatment with compounds 6s and 6t at their respective GI50 concentrations for 48 h. Following treatment, the cells were collected, dispersed in 0.5 mL of PBS, and subjected to centrifugation. They were then preserved in 70% (v/v) ethanol at 4 °C and subsequently rinsed with PBS, treated with RNase, and propidium iodide (PI) was used to stain the cells. Flow cytometric measurements were carried out employing a FACScalibur system (Becton Dickinson, Franklin Lakes, NJ, USA). The distributions of the cell cycle were subsequently calculated with the aid of software from Phoenix Flow Systems and Verity Software House (ModFit LT V6.0).

RFX 393 cells [2] = assay: Apoptosis and necrosis investigation (Annexin V/PI flow cytometry); format: cell-based; conditions: GI50 concentration, 48 h; for Apoptosis Late: control 0.15, % given in Figure 10 only; for Apoptosis Early: control 0.64, % given in Figure 10 only; for Necrosis: control 1.92, % given in Figure 10 only; for Apoptosis Total: control 2.71, % given in Figure 10 only
Method: To assess the influence of compounds 6s and 6t on cell death pathways, RFX 393 cells were subjected to the compounds for 48 h and then stained using Annexin V/PI. […] The comprehensive outcomes are provided in Table 4 and graphically illustrated in Figure 10.
RFX 393 cells underwent treatment with the GI50 concentrations of compounds 6s and 6t for 48 h. Following the treatment, the cells were collected, dispersed in 0.5 mL of PBS, and subjected to centrifugation. They were then preserved in 70% (v/v) ethanol at 4 °C and subsequently rinsed with PBS. The fixed cells were then centrifuged again, resuspended in PBS, centrifuged once more, and stained with PE Annexin V and propidium iodide (PI) according to the manufacturer’s instructions. The samples were subsequently analyzed using flow cytometry with a FACScalibur instrument (Becton Dickinson, Franklin Lakes, NJ, USA). Data on cell cycle distributions were processed with the aid of Phoenix Flow Systems and Verity Software House.

RFX 393 [3] = assay: In vitro cytotoxicity on renal carcinoma cell line (MTT assay); format: cell-based; conditions: renal carcinoma cell line RFX 393, read-out: RFX393 (IC50)
TrkA = biological target: T1, TrkA (Homo sapiens, UniProt P04629); assay: TRKA inhibition assay (BPS Bioscience kit, Kinase-Glo Max luminescence); format: biochemical; conditions: four concentrations 0.01, 0.1, 1, 10 µM, triplicate, mean ± SD, read-out: Enzyme Inhibition IC50 TRK-A
T1 construct: purchased BPS Bioscience, San Diego, CA, USA 79548
T1 sequence (P04629 33-796): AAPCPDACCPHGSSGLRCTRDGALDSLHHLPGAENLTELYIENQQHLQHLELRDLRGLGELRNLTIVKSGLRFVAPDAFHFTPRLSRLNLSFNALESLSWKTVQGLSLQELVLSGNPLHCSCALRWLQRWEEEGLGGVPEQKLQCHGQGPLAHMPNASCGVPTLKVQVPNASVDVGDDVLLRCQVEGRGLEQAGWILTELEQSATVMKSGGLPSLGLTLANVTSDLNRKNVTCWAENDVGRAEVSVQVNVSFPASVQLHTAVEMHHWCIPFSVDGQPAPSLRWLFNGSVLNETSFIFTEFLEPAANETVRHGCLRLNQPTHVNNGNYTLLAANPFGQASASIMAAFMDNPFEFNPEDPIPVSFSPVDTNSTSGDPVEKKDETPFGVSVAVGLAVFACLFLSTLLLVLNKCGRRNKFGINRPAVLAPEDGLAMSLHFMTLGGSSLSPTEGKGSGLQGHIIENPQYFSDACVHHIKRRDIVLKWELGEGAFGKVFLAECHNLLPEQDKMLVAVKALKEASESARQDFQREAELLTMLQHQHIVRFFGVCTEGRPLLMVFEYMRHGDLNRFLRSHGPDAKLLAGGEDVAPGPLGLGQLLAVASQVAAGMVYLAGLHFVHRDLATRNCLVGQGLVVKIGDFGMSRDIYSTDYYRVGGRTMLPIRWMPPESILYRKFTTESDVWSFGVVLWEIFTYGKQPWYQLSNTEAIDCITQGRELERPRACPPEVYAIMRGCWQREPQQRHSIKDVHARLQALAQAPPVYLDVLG

CDK2/CyclinA2 = biological target: T2, CDK2/CyclinA2 (Homo sapiens, UniProt P24941); assay: CDK2 inhibition assay (BPS Bioscience kit, Kinase-Glo Max luminescence); format: biochemical; conditions: four concentrations 0.01, 0.1, 1, 10 µM, triplicate, mean ± SD, read-out: Enzyme Inhibition IC50 CDK-2
T2 construct: purchased BPS Bioscience, San Diego, CA, USA 79599

RFX 393 [4] = assay: NCI 60 cell line single-dose growth inhibition (SRB); format: cell-based, human; conditions: 10 µM; kidney carcinoma cell line RFX 393
Method: (§1) The developed pyrazolopyrimidines 6a–t, 11a–g, and 12 were evaluated by the National Cancer Institute (NCI) Developmental Therapeutic Program https://dtp.cancer.gov/ (accessed on 17 July 2022) for their prospective efficacy of growth-inhibitory activity verses 60 different carcinoma cell lines of NCI. Human carcinoma cell lines originated across nine distinct cancer types: central nervous system, cancer of the blood, colorectal, breast, ovary, kidney, melanoma, prostatic, and lung carcinomas. All compounds have been assessed with a concentration of 10 µM versus the collection of 60 diverse cancer cell lines. Outcomes are expressed as percentages of growth inhibition (GI %) for the evaluated compounds versus the complete set of cell lines (Supplementary Materials).
(§2) Performed by US National Cancer Institute according to previously reported standard procedure as follows: Cells were plated into 96-well microtiter plates with each well equipped with 100 µL of culture medium at densities between 5000 and 40,000 cells per well, based on the specific cell line’s doubling time. After seeding, incubation was carried out at 37 °C in 5% carbon dioxide, 95% […] environment with 100% relative humidity for one day to permit the cells to attach before proceeding to treatment with the tested compounds. To determine the cell count at drug exposure time of (Tz), two plates were per fixed cell line using trichloroacetic acid after the 24 h incubation period.
(§3) The studied compounds were initially dispersed in dimethyl sulfoxide at a concentration 400 times exceeding the intended final concentration and subsequently frozen until required. Before the application, an aliquot of the stock solution was warmed to room temperature and diluted in a complete medium containing 50 µg per mL of gentamicin to attain twice the intended concentration. Subsequently, 100 µL of the diluted compound was introduced to every well holding 100 µL of the medium to achieve the intended concentration. After the compound was added, the plates were incubated under the same conditions for a further 48 h at 37 °C.
(§4) For the adherent cells, the experiment was concluded via the introduction of 50 µL of cold 50% (w/v) trichloroacetic acid into each well, resulting in a last TCA concentration for 10%. Then, the cell plates were incubated at 4 °C for about one hour to fix the cells.
(§5) After the removal of the supernatant, the plates were washed with tap water five times before being dried using air. For the suspension cells, a similar process was followed, but 50 µL of 80% TCA was used, yielding a final TCA concentration of 16% for the cells fixed in the well’s bottom.
(§6) Following cell fixation, 100 µL of the 0.4% (wight/volume) solution of sulforhodamine B with acetic acid at a concentration of 1% was introduced to all individual wells, and then incubated at ambient temperature for 10 min. The plates were washed five times with 1% acetic acid to eliminate any residual dye, followed by air-drying. Next, […] Tris base was added to disperse the bonded dye, and, using an automatic microplate reader, the absorbance was determined at 515 nm.
(§7) The percentage of growth inhibition measurement depended on the absorbance values at the baseline time point […], as well as during the control growth phase (C) and the test growth phase (Ti). When Ti was greater than or equal to Tz, the calculation formula used [(Ti − Tz)/(C − Tz)] × 100. If Ti was less than Tz, the formula used was (Ti − Tz)/Tz × 100.

SNB-75 = assay: as above; format: cell-based, human; conditions: 10 µM; central nervous system SNB-75 carcinoma cell line
Method: as §1, §2, §3, §4, §5, §6, §7

Trk = conditions: known inhibitor, in Figure 2; no reference given; cited from earlier work
HOP-92 = assay: NCI 60 cell line single-dose growth inhibition (SRB); format: cell-based, human; conditions: 10 µM; lung carcinoma HOP-92
Method: as §1, §2, §3, §4, §5, §6, §7

NCI-H460 = assay: as above; format: cell-based, human; conditions: 10 µM; lung carcinoma NCI-H460
Method: as §1, §2, §3, §4, §5, §6, §7

56 cell lines = assay: NCI 60 cell line single-dose growth inhibition, mean over the panel; format: cell-based; conditions: Homo sapiens, mean across 56 cell lines, read-out: mean growth inhibition (GI%)
Method: as §1, with “Materials). […]” for “Materials).”
as §6, with “The plates were washed five times with 1% acetic acid to eliminate any residual dye, followed by air-drying.” left out
The percentage of growth inhibition measurement depended on the absorbance values at the baseline time point (T0), as well as during the control growth phase (C) and the test growth phase (Ti). […]

HOP-62 = assay: NCI 60 cell line single-dose growth inhibition (SRB); format: cell-based, human; conditions: 10 µM; lung carcinoma HOP-62
Method: as §1, §2, §3, §4, §5, §6, §7

ACHN = assay: as above; format: cell-based, human; conditions: 10 µM; renal cancer cell line ACHN
Method: as §1, §2, §3, §4, §5, §6, §7

RPMI-8226 = assay: as above; format: cell-based, human; conditions: 10 µM; leukemia RPMI-8226
Method: as §1, §2, §3, §4, §5, §6, §7

CCRF-CEM = assay: as above; format: cell-based, human; conditions: 10 µM; leukemia CCRF-CEM
Method: as §1, §2, §3, §4, §5, §6, §7

- IC50 (TrkA): 970 ± 40 nM
- IC50 (CDK2/CyclinA2): 200 ± 20 nM
Structure (SMILES): CCOC(=O)c1c(Nc2ccccc2)nn2c(-c3ccc4ccccc4c3)ccnc12 [6r, Ethyl 7-(Naphthalen-2-yl)-2-(anilinyl)pyrazolo[1,5-a]pyrimidine-3-carboxylate]
- GI % (RFX 393 [4]): 81.71%

- IC50 (TrkA): 890 ± 30 nM
- IC50 (CDK2/CyclinA2): 220 ± 20 nM
Structure (SMILES): CCOC(=O)c1c(Nc2ccccc2)nn2c(-c3ccco3)c(C#N)cnc12 [11g, Ethyl 6-Cyano-7-(furan-2-yl)-2-(anilinyl)pyrazolo[1,5-a]pyrimidine-3-carboxylate]
- GI % (SNB-75): 69.53%

- IC50 (TrkA): 960 ± 40 nM
- IC50 (CDK2/CyclinA2): 1060 ± 90 nM
Structure (SMILES): CCOC(=O)c1c(Nc2ccccc2)nn2c(-c3ccc(OC)cc3)ccnc12 [6m, Ethyl 7-(4-Methoxyphenyl)-2-(anilinyl)pyrazolo[1,5-a]pyrimidine-3-carboxylate]
- GI % (RFX 393 [4]): 102.68%

- IC50 (TrkA): 980 ± 40 nM
- IC50 (CDK2/CyclinA2): 780 ± 40 nM
Structure (SMILES): CCOC(=O)c1c(Nc2ccccc2)nn2c(-c3ccc(OC)c(OC)c3)ccnc12 [6n, Ethyl 7-(3,4-Dimethoxyphenyl)-2-(anilinyl)pyrazolo[1,5-a]pyrimidine-3-carboxylate]
- GI % (HOP-92): 94.73%
- GI % (NCI-H460): 52.11%
- inhibition at 10 µM (56 cell lines): 43.9%

- IC50 (TrkA): 1340 ± 80 nM
- IC50 (CDK2/CyclinA2): 660 ± 40 nM
Structure (SMILES): CCOC(=O)c1c(Nc2ccccc2)nn2c(-c3ccc(Br)cc3)ccnc12 [6p, Ethyl 7-(4-Bromophenyl)-2-(anilinyl)pyrazolo[1,5-a]pyrimidine-3-carboxylate]
- GI % (HOP-92): 71.8%
- GI % (RFX 393 [4]): 112.34%
- GI % (ACHN): 66.02%
- GI % (NCI-H460): 66.12%

- IC50 (TrkA): 1170 ± 90 nM
- IC50 (CDK2/CyclinA2): 1580 ± 130 nM
Structure (SMILES): CCOC(=O)c1c(Nc2ccccc2)nn2c(-c3ccccc3)ccnc12 [6k, Ethyl 7-Phenyl-2-(anilinyl)pyrazolo[1,5-a]pyrimidine-3-carboxylate]
- GI % (RPMI-8226): 69.31%
- GI % (CCRF-CEM): 90.41%

- IC50 (CDK2/CyclinA2): 90 ± 10 nM
Structure (SMILES): CCOC(=O)c1c(Nc2ccccc2)nn2c(-c3cccs3)ccnc12 [6t, Ethyl 2-(Anilinyl)-7-(thiophen-2-yl)pyrazolo[1,5-a]pyrimidine-3-carboxylate]
- %S (RFX 393 cells [1]): 15.26%
- %G0–G1 (RFX 393 cells [1]): 78.01%
- Apoptosis Late (RFX 393 cells [2]): 9.49%
- Apoptosis Early (RFX 393 cells [2]): 11.15%
- Necrosis (RFX 393 cells [2]): 3.58%
- Apoptosis Total (RFX 393 cells [2]): 24.22%
- IC50 (RFX 393 [3]): 19900 ± 670 nM
- GI % (RFX 393 [4]): 106.08%

- IC50 (TrkA): 1590 ± 110 nM
- IC50 (CDK2/CyclinA2): 760 ± 40 nM
Structure (SMILES): CCOC(=O)c1c(Nc2ccccc2)nn2c(-c3ccc(Cl)cc3)ccnc12 [6o, Ethyl 7-(4-Chlorophenyl)-2-(anilinyl)pyrazolo[1,5-a]pyrimidine-3-carboxylate]
- GI % (RFX 393 [4]): 110.55%
- GI % (CCRF-CEM): 83.85%

Continued, compound first:

Structure (SMILES): CCOC(=O)c1c(Nc2ccccc2)nn2c(-c3ccco3)ccnc12 [6s, Ethyl 7-(Furan-2-yl)-2-(anilinyl)pyrazolo[1,5-a]pyrimidine-3-carboxylate]
- %S (RFX 393 cells [1]): 11.49%
- %G0–G1 (RFX 393 cells [1]): 84.36%
- Apoptosis Late (RFX 393 cells [2]): 7.74%
- Apoptosis Early (RFX 393 cells [2]): 20.29%
- Necrosis (RFX 393 cells [2]): 4.04%
- Apoptosis Total (RFX 393 cells [2]): 32.07%
- IC50 (RFX 393 [3]): 11700 ± 400 nM

Structure (SMILES): O=C(Nc1cnn2ccc(N3CCC[C@@H]3c3cc(F)ccc3F)nc12)N1CC[C@H](O)C1 [Larotrectinib]
- IC50 (Trk): 2 nM

Structure (SMILES): COc1ccc(-c2ccnc3c(C#N)c(Nc4ccccc4)nn23)cc1OC [6d, 7-(3,4-Dimethoxyphenyl)-2-(anilinyl)pyrazolo[1,5-a]pyrimidine-3-carbonitrile]
- IC50 (TrkA): 570 ± 20 nM
- IC50 (CDK2/CyclinA2): 550 ± 40 nM
- GI % (HOP-62): 100.07%
- GI % (RFX 393 [4]): 84.17%

Structure (SMILES): CCOC(=O)c1c(Nc2ccccc2)nn2c(-c3ccc([N+](=O)[O-])cc3)ccnc12 [6q, Ethyl 7-(4-Nitrophenyl)-2-(anilinyl)pyrazolo[1,5-a]pyrimidine-3-carboxylate]
- GI % (RFX 393 [4]): 52.08%

Structure (SMILES): N#Cc1c(Nc2ccccc2)nn2c(-c3ccco3)ccnc12 [6i, 7-(Furan-2-yl)-2-(anilinyl)pyrazolo[1,5-a]pyrimidine-3-carbonitrile]
- GI % (HOP-92): 68.96%

Structure (SMILES): CN[C@@H]1C[C@H]2O[C@@](C)([C@@H]1OC)n1c3ccccc3c3c4c(c5c6ccccc6n2c5c31)C(=O)NC4 [Staurosporine, reference compound]
- IC50 (RFX 393 [3]): 70 nM
